Measurements reported in patent US20240299352A1, “COMBINATION THERAPIES WITH SETD2 INHIBITORS” (Epizyme, Inc., priority 2021, published 2024).

Key:
[1] = test system: diffuse large B-cell lymphoma (DLBCL) cell lines; test: Pre-treatment model combination study with Cpd. No. 15 (7 days pre-treatment, then combination; Table G), CellTiter-Glo viability, Loewe Volume; conditions: 7 days pre-treatment with Cpd. No. 15, then combination; for Combination effect with Cpd. No. 15 (Loewe Volume class), Farage: cell line Farage (Cat. No. CRL-2630); for Combination effect with Cpd. No. 15 (Loewe Volume class), HT: cell line HT (Cat. No. CRL-2631); for Combination effect with Cpd. No. 15 (Loewe Volume class), OCILY7: cell line OCILY7 (Cat. No. ACC 688); for Combination effect with Cpd. No. 15 (Loewe Volume class), SUDHL4: cell line SUDHL4 (Cat. No. ACC 495); for Combination effect with Cpd. No. 15 (Loewe Volume class), WILL2: cell line WILL2 (Cat. No. ACC 652)
REC1 = test: Co-treatment combination study with Cpd. No. 15, CellTiter-Glo viability, Loewe Volume; format: cell-based; conditions: in combination with Cpd. No. 15, seven days, mantle cell lymphoma cell line REC1 (CRL-3004)
Procedure: (§1) Mantle cell lymphoma (MCL) and diffuse large B-cell lymphoma (DLBCL) cell line cultures in log-linear growth rate were treated with combinations of Cpd. No. 15 and combination partners according to a co-treatment model. […] No. 15 and the combination partner. […] Each combination was tested in quadruplicate wells. The final concentration of DMSO (vehicle) in the assay was 0.1% v/v. Fifty microliters of cell line suspension were directly dispensed to the assay-ready plates with an automated multichannel dispenser on to 384-well assay-ready plates. Assay plates were incubated for seven days unless otherwise indicated in a humidified atmosphere of 5% CO2 at 37° C. Quantification of the effect of single agents or combinations on cell viability was performed through measurement of cellular adenosine triphosphate (ATP) using a CellTiter-Glo® (Promega, Madison, WI) Luminescent Cell Viability Assay. Luminescence was detected using a SpectraMax M5 microplate reader (Molecular Devices, Sunnyvale, CA). Concentration response plots were generated in GraphPad Prism version 7.0 for Windows, GraphPad Software, (La Jolla, California) and curves fitted to a four-parameter logistic model with variable slope. Percent of inhibition was calculated at each treatment concentration.

MAVER1 = test: as above; format: cell-based; conditions: in combination with Cpd. No. 15, seven days, mantle cell lymphoma cell line MAVER1 (CRL-3008)
Procedure: as §1

JVM2 = test: as above; format: cell-based; conditions: in combination with Cpd. No. 15, seven days, mantle cell lymphoma cell line JVM2 (CRL-3002)
Procedure: as §1

GRANTA519 = test: as above; format: cell-based; conditions: in combination with Cpd. No. 15, seven days, mantle cell lymphoma cell line GRANTA519 (ACC 342)
Procedure: as §1

JEKO1 = test: as above; format: cell-based; conditions: in combination with Cpd. No. 15, seven days, mantle cell lymphoma cell line JEKO1 (CRL-3006)
Procedure: as §1

MINO = test: as above; format: cell-based; conditions: in combination with Cpd. No. 15, seven days, mantle cell lymphoma cell line MINO (CRL-3000)
Procedure: as §1

Z138 = test: as above; format: cell-based; conditions: in combination with Cpd. No. 15, seven days, mantle cell lymphoma cell line Z138 (CRL-3001)
Procedure: as §1

| Structure (SMILES) | Combination effect with Cpd. No. 15 (Loewe Volume class), Farage [1] | Combination effect with Cpd. No. 15 (Loewe Volume class), HT [1] | Combination effect with Cpd. No. 15 (Loewe Volume class), OCILY7 [1] | Combination effect with Cpd. No. 15 (Loewe Volume class), SUDHL4 [1] | Combination effect with Cpd. No. 15 (Loewe Volume class), WILL2 [1] | Combination effect (Loewe Volume) REC1 (REC1) | Combination effect (Loewe Volume) MAVER1 (MAVER1) | Combination effect (Loewe Volume) JVM2 (JVM2) | Combination effect (Loewe Volume) GRANTA519 (GRANTA519) | Combination effect (Loewe Volume) JEKO1 (JEKO1) | Combination effect (Loewe Volume) MINO (MINO) | Combination effect (Loewe Volume) Z138 (Z138) |
| --- | --- | --- | --- | --- | --- | --- | --- | --- | --- | --- | --- | --- |
| CN(C)CCCOc1ccc(-c2ccc3ncc4c(c3c2)n(C2CCOCC2)c(=O)n4C)cn1 [AZD0156] | Synergy (VLoewe>1: synergy) | Synergy (VLoewe>1: synergy) | Synergy (VLoewe>1: synergy) | Synergy (VLoewe>1: synergy) | No Effect | – | – | – | – | – | – | – |
| C=CCn1c(=O)c2cnc(Nc3ccc(N4CCN(C)CC4)cc3)nc2n1-c1cccc(C(C)(C)O)n1 [AZD1775] | Synergy (VLoewe>1: synergy) | Additivity (between 1 and −1: additivity) | Additivity (between 1 and −1: additivity) | Synergy (VLoewe>1: synergy) | Synergy (VLoewe>1: synergy) | – | – | – | – | – | – | – |
| C[C@@H]1COCCN1c1cc(C2([S@](C)(=N)=O)CC2)nc(-c2cc[nH]c3nccc2-3)n1 [AZD6738] | Synergy (VLoewe>1: synergy) | Additivity (between 1 and −1: additivity) | Additivity (between 1 and −1: additivity) | Synergy (VLoewe>1: synergy) | No Effect | – | – | – | – | – | – | – |
| NC(=O)Nc1cc(-c2cccc(F)c2)sc1C(=O)N[C@H]1CCCNC1 [AZD7762] | Synergy (VLoewe>1: synergy) | Additivity (between 1 and −1: additivity) | Additivity (between 1 and −1: additivity) | Synergy (VLoewe>1: synergy) | Additivity (between 1 and −1: additivity) | – | – | – | – | – | – | – |
| COc1c(OCCCN2CCOCC2)ccc2c1N=C(NC(=O)c1cnc(N)nc1)N1CCN=C21 [Copanlisib, copanlisib] | – | – | – | – | – | Additivity (between 1 and −1: additivity) | Synergy (VLoewe>1: synergy) | Additivity (between 1 and −1: additivity) | Additivity (between 1 and −1: additivity) | Additivity (between 1 and −1: additivity) | Additivity (between 1 and −1: additivity) | Additivity (between 1 and −1: additivity) |
| COc1cccc2c1C(=O)c1c(O)c3c(c(O)c1C2=O)C[C@@](O)(C(=O)CO)C[C@@H]3O[C@H]1C[C@H](N)[C@H](O)[C@H](C)O1 [Doxorubicin (H)] | Synergy (VLoewe>1: synergy) | Synergy (VLoewe>1: synergy) | Additivity (between 1 and −1: additivity) | Synergy (VLoewe>1: synergy) | Synergy (VLoewe>1: synergy) | – | – | – | – | – | – | – |
| CC[C@H](Nc1ncnc2[nH]cnc12)c1nc2cccc(F)c2c(=O)n1-c1ccccc1 [Idelalisib] | Synergy (VLoewe>1: synergy) | Synergy (VLoewe>1: synergy) | Additivity (between 1 and −1: additivity) | Synergy (VLoewe>1: synergy) | – | – | – | – | – | – | – | – |
| NC1(c2ccc(-c3nc4ccn5c(=O)[nH]nc5c4cc3-c3ccccc3)cc2)CCC1 [MK2206] | Synergy (VLoewe>1: synergy) | Synergy (VLoewe>1: synergy) | Synergy (VLoewe>1: synergy) | Synergy (VLoewe>1: synergy) | Synergy (VLoewe>1: synergy) | – | – | – | – | – | – | – |
| NC(=O)c1cccc2cn(-c3ccc([C@@H]4CCCNC4)cc3)nc12 [Niraparib] | Synergy (VLoewe>1: synergy) | Synergy (VLoewe>1: synergy) | Additivity (between 1 and −1: additivity) | Synergy (VLoewe>1: synergy) | Synergy (VLoewe>1: synergy) | – | – | – | – | – | – | – |
| O=C(c1cc(Cc2n[nH]c(=O)c3ccccc23)ccc1F)N1CCN(C(=O)C2CC2)CC1 [Olaparib] | Synergy (VLoewe>1: synergy) | Synergy (VLoewe>1: synergy) | Additivity (between 1 and −1: additivity) | Synergy (VLoewe>1: synergy) | Synergy (VLoewe>1: synergy) | – | – | – | – | – | – | – |
| CC(=O)c1c(C)c2cnc(Nc3ccc(N4CCNCC4)cn3)nc2n(C2CCCC2)c1=O [Palbociclib, palbociclib] | – | – | – | – | – | Additivity (between 1 and −1: additivity) | Synergy (VLoewe>1: synergy) | Additivity (between 1 and −1: additivity) | Additivity (between 1 and −1: additivity) | Synergy (VLoewe>1: synergy) | Additivity (between 1 and −1: additivity) | Additivity (between 1 and −1: additivity) |
| COc1cc(Nc2ncc(F)c(Nc3ccc4c(n3)NC(=O)C(C)(C)O4)n2)cc(OC)c1OC [Tamatinib] | Synergy (VLoewe>1: synergy) | Additivity (between 1 and −1: additivity) | Additivity (between 1 and −1: additivity) | Synergy (VLoewe>1: synergy) | Additivity (between 1 and −1: additivity) | – | – | – | – | – | – | – |
| CC(=O)Nc1cccc(-n2c(=O)n(C3CC3)c(=O)c3c(Nc4ccc(I)cc4F)n(C)c(=O)c(C)c32)c1 [Trametinib] | Synergy (VLoewe>1: synergy) | Synergy (VLoewe>1: synergy) | Synergy (VLoewe>1: synergy) | Synergy (VLoewe>1: synergy) | – | – | – | – | – | – | – | – |
